We go through 5 compounds from patent publication US20130024954A1, “Human Age-Related Neurodegenerative Nematode Model and Methods” (priority 2011, published 2013).

One assay concerns neurons VC4 and VC5. The assay is described as follows: Degeneration of VC4 and VC5 neurons in single-copy apl-1/huAPP695 overexpression worms treated with drugs (Example 1). The format is in vivo, C. elegans. The following applies: for APP-induced degeneration of VC4 and VC5 (in words): Example 1, FIG. 19, Table 3; for % degen / Day 1 (degenerated of counted) / Day 3 (degenerated of counted) / Day 5 (degenerated of counted): Dimebon. An excerpt: Many transgenic strains can be easily obtained from a public consortium (CGC), including those with specific neurons fluorescently labeled in a variety of colors. If not publicly available, these strains can be easily constructed using a PCR fusion approach. Final PCR products contain the GFP gene driven by a specific promoter-of-interest and are then microinjected into the gonad of adult wildtype animals. C. elegans have the ability to form a stable, functional extra-chromosomal array with injected PCR products. Therefore, they express injected DNA. Fluorescent worms are then crossed to the single-copy overexpression worms to generate overexpression worms with different identifiable sets of neurons labeled.

The next assay concerns VC4 and VC5 neurons. Kind of assay: Quantification of percent neurodegeneration of VC4&5 neurons with drug treatment (Example 2). The format is in vivo, C. elegans. Particulars: for neurodegeneration induced by APP or apl-1 (in words): 50 μM from L4-larval stage onward, FIG. 25A; for degeneration with gain-of-function mutation in egl-1 (in words): SC_APP and SC_apl-1 strains with egl-1 gain-of-function mutation; for degeneration of VC4&5, SC_APPC59 strain (in words): SC_APPC59 strain (intracellular portion of APP); for degeneration of VC4&5, SC_APPC59 strain (in words) / degeneration of VC4&5, SC_APPN636 strain (in words): FIG. 31; for degeneration of VC4&5, SC_APPN636 strain (in words): SC_APPN636 strain (extracellular and transmembrane portion of APP); for degeneration in egl-1 (null) mutant background (in words): egl-1 (null) background, FIG. 25C. On the procedure: All analyses were completed with the experimenter blind to genotype and drug treatment. Age-synchronized animals were immobilized on 2% agar pads containing 0.7 mM sodium azide. Neurons that had broken/missing axonal projections, dimly-lit somas with missing projections or absent GFP labeling in the appropriate neuronal location were classified as degenerating. Serotonin neurons included NSM, ADF, AIM, RIH, HSN class members. All animals were evaluated within 10 minutes of azide treatment. In cases where the worm strains were too defective in egg laying to reach day 3 or 5 adult stage, animals were treated at L4-larval stage onward with the sterilization drug 5-fluoro-2′-deoxyuridne (0.12 mM final) (Sigma). […] The percentage of VC4 and VC5 neurons that succumbed to APP-induced degeneration was compared for different groups (strain, age, drug condition) using planned non-parametric X^2 analyses.
Drugs were freshly prepared in buffer (M9) solution and pipetted onto small seeded plates. These plates were allowed to dry at least 2 hours at RT before use. The final drug concentrations of solid media are: Dimebon, 50 μM (Tocris); P7C3, 50 μM. Well-fed larval stage 4 animals were picked onto seeded plates with or without drug. Animals were then allowed to age at 20° C. for ˜20 (day 1 adult), ˜68 (day 3 adult) and ˜116 hours (day 5 adult) before analysis. Controls using buffer with no drug were performed on each strain for each assay, and each assay was repeated multiple (3-8) times. Data were then averaged and statistically compared with planned non-parametric X2 analyses (Zar, 1999).

For assay [1], the system named is egg-laying and swimming behaviors. Kind of assay: Egg-retention assay and swimming kinematics (behaviors that depend on VC4&5 neurons). Format: in vivo, C. elegans. The following applies: for egg-laying and swimming behaviors, SC_APPC59 strain (in words): data not shown; for behavioral deficits (swimming and egg laying) with age (in words): drug-treated SC_APP:mCh or SC_apl-1:mCh individuals. How it is done:
Plates of non-starved adult worms were bleached to yield a synchronized population of eggs. Eggs were allowed to develop for ˜55 hours (day 1 adult) and ˜103 (day 3 adult) hours at 20° C. Animals were then individually dissolved in 1N NaOH, and eggs retained within the dissolved adult animal were counted.
Worms were submerged in NGM liquid and recorded for 1 minute following a 2-minute acclimation period. Spine analysis software was then used to calculate and plot the midbody angle of the worm as described in Pierce-Shimomura J T, Chen B L, Mun J J, Ho R, Sarkis R, McIntire S L. 2008. Genetic analysis of crawling and swimming locomotory patterns in C. elegans. Proc Natl Acad Sci USA. 105: 20982-7, incorporated by reference. Head-bend frequency was determined based on the average time it took an animal to make 20 complete-cycle head bends.

Assay [2] concerns adult-born neurons in the hippocampus. Particulars: earlier reports; cited from earlier work.
The mark [3] stands for this setting: SC_huAPP695 strain, adult day 1.
[4] abbreviates: SC_huAPP695 strain, adult day 3.
Setting [5] is: SC_huAPP695 strain, adult day 5.

Take `CN1CCN2c3ccccc3Cc3ccccc3C2C1` (stereo not shown) [Mianserin]: the “APP-induced degeneration of VC4 and VC5 (in words)” value (from here on “APP-induced degeneration”) with neurons VC4 and VC5 was “prevent APP-induced degeneration”.
On to `Cc1ccc2c(c1)c1c(n2CCc2ccc(C)nc2)CCN(C)C1` [Dimebon], for which the “APP-induced degeneration” value in the assay on neurons VC4 and VC5 is listed as “prevents APP-induced neurodegeneration”. The “% degen” value is 8.97% in the assay with neurons VC4 and VC5 (SC_apl-1 strain, adult day 1); 15.88% in the assay with neurons VC4 and VC5 (SC_apl-1 strain, adult day 3); 17.64% in the assay with neurons VC4 and VC5 (SC_apl-1 strain, adult day 5); 10.66% with neurons VC4 and VC5 (setting [3]); 15.45% with neurons VC4 and VC5 (setting [4]); 16.67% in the assay on neurons VC4 and VC5 (setting [5]). Besides, the “% degen” value in the assay on neurons VC4 and VC5 (Wild-type strain, adult day 1) is reported as 4.63%; in the assay on neurons VC4 and VC5 (Wild-type strain, adult day 3), 6.45%; with neurons VC4 and VC5 (Wild-type strain, adult day 5), 12.93%. For the same compound, the “Day 1 (degenerated of counted)” value in the assay on neurons VC4 and VC5 (SC_apl-1 strain, adult day 1) is given as 14 of 156; with neurons VC4 and VC5 (setting [3]), 13 of 122; with neurons VC4 and VC5 (Wild-type strain, adult day 1) it was 5 of 108. The “Day 3 (degenerated of counted)” value is reported as 27 of 170 in the assay on neurons VC4 and VC5 (SC_apl-1 strain, adult day 3); 17 of 110 in the assay on neurons VC4 and VC5 (setting [4]); 8 of 124 with neurons VC4 and VC5 (Wild-type strain, adult day 3). Also, the “Day 5 (degenerated of counted)” value is reported as 12 of 68 with neurons VC4 and VC5 (SC_apl-1 strain, adult day 5); 13 of 78 in the assay on neurons VC4 and VC5 (setting [5]); 15 of 116 in the assay on neurons VC4 and VC5 (Wild-type strain, adult day 5). Also, the “neurodegeneration induced by APP or apl-1 (in words)” value with VC4 and VC5 neurons was “prevented neurodegeneration”. Besides, the “degeneration with gain-of-function mutation in egl-1 (in words)” value in the assay on VC4 and VC5 neurons is listed as “failed to prevent degeneration”. Besides, the “degeneration of VC4&5, SC_APPC59 strain (in words)” value in the assay on VC4 and VC5 neurons is “prevented degeneration”. Besides, in the assay on VC4 and VC5 neurons, the “degeneration of VC4&5, SC_APPN636 strain (in words)” value is “failed to provide protection”. In the assay on VC4 and VC5 neurons, the “degeneration in egl-1 (null) mutant background (in words)” value is on record as “no further protection from degeneration”. In addition, the “egg-laying and swimming behaviors, SC_APPC59 strain (in words)” value in assay [1] was “protection of egg-laying and swimming behaviors”. For the same compound, in assay [1], the “behavioral deficits (swimming and egg laying) with age (in words)” value is listed as “without behavioral deficits”. The “adult-born hippocampal neurons (in words)” value in assay [2] is reported as “promote the survival (prevent death) of adult-born hippocampal neurons”.
As to `OC(CNc1ccccc1)Cn1c2ccc(Br)cc2c2cc(Br)ccc21` (stereo not shown) [P7C3], in the assay with VC4 and VC5 neurons, the “neurodegeneration induced by APP or apl-1 (in words)” value was “significantly prevented neurodegeneration”; the “degeneration with gain-of-function mutation in egl-1 (in words)” value was “failed to prevent degeneration”; the “degeneration of VC4&5, SC_APPC59 strain (in words)” value was “prevented degeneration”; the “degeneration of VC4&5, SC_APPN636 strain (in words)” value was “failed to provide protection”. For the same compound, in the assay with VC4 and VC5 neurons, the “degeneration in egl-1 (null) mutant background (in words)” value was “no further protection from degeneration”. The “relative potency in dose response analysis” value in the assay with VC4 and VC5 neurons (prevention of VC4&5 degeneration, FIG. 25B) is “two-orders of magnitude more potent than Dimebon”. Further, in assay [1], the “egg-laying and swimming behaviors, SC_APPC59 strain (in words)” value was “protection of egg-laying and swimming behaviors”; the “behavioral deficits (swimming and egg laying) with age (in words)” value is listed as “without behavioral deficits”. In addition, in assay [2], the “adult-born hippocampal neurons (in words)” value is given as “increase the number of adult-born neurons in the hippocampus of mice”.
For `CN1CCN2c3ncccc3Cc3ccccc3C2C1` (stereo not shown) [Mirtazapine], the “APP-induced degeneration” value in the assay on neurons VC4 and VC5 is “prevent APP-induced degeneration”.
As to `O=c1[nH]c(=O)n([C@H]2C[C@H](O)[C@@H](CO)O2)cc1F` [5-fluoro-2′-deoxyuridne], the “effect on progression of degeneration of VC neurons (in words)” value with VC4 and VC5 neurons (0.12 mM final, from L4-larval stage onward (sterilization drug)) was “no effect on the progression of degeneration of VC neurons”. In addition, the “swimming defect of single-copy APP or apl-1 strains after sterilization (in words)” value in assay [1] (0.12 mM final, swimming kinematics) is given as “displayed the same defect”.
